Literature values in patent US12156864B2, “Analogs of cyclobenzaprine and amitryptilene” (TONIX PHARMACEUTICALS HOLDING CORP, priority 2017, dated 2024).

How the values were obtained:
[1] = tested on: veterans and males with PTSD
[2] = tested on: patients; settings: oral doses sufficient to treat PTSD-associated sleep disorders
[3] = molecular target: histaminergic1 (H1) receptor (Homo sapiens, UniProt P35367)
[4] = tested on: fibromyalgia patients; settings: cyclobenzaprine 10 to 40 mg, 12-week period
[5] = tested on: α1-adrenergic receptor
[6] = molecular target: serotonin-2A (5-HT2A) receptor (Homo sapiens, UniProt P28223)
[7] = humans; metabolite formed via pathway b (N-dealkylation)
[8] = tested on: PTSD combat subsample; settings: combat subsample (N=77) of a pooled analysis

histaminergic1 (H1) receptor, sequence (P35367 whole entry): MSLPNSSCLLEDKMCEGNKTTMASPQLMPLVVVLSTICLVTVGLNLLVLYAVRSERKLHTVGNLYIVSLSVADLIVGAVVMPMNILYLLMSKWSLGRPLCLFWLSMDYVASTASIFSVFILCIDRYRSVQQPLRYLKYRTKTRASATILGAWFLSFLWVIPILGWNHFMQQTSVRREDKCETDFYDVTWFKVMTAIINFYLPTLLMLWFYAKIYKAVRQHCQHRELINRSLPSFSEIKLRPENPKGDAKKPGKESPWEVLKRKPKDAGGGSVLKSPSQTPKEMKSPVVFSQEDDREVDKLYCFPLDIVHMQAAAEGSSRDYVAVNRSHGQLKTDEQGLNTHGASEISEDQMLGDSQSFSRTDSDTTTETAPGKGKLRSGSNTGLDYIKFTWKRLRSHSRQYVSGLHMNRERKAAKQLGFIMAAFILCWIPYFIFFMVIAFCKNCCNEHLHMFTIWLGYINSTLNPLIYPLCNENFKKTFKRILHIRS
serotonin-2A (5-HT2A) receptor, sequence (P28223 whole entry, species assumed): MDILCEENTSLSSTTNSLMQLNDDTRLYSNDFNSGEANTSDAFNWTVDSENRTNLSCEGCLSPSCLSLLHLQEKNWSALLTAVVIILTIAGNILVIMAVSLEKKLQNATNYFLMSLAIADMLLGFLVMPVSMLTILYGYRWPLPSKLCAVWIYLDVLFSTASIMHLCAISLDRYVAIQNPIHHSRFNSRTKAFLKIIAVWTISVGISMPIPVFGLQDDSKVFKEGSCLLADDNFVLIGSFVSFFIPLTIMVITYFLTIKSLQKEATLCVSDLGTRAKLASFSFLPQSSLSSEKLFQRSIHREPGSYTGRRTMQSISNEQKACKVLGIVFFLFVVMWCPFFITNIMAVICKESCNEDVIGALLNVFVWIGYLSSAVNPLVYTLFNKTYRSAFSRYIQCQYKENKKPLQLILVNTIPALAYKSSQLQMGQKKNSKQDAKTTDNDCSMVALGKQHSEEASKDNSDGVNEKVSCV

CN[C@H]1CC[C@@H](c2ccc(Cl)c(Cl)c2)c2ccccc21 [Sertraline]
efficacy in PTSD [1]: failed to show efficacy

CN(C)CCC=C1c2ccccc2C=Cc2ccccc21 [cyclobenzaprine, 3-(5H-dibenzo[a,d]cyclohepten-5-ylidene)-N,N-dimethyl-1-propanamine]
next-day side effect [2]: drowsiness the next day | binding and antagonist activity at H1 receptor [3]: high affinity binding and antagonist activity | quality of sleep and pain score [4]: significantly improved | total number of tender points and muscle tightness [4]: reduction | binding and antagonist activity at α1-adrenergic receptor [5]: high affinity binding and antagonist activity | binding and antagonist activity at 5-HT2A receptor [6]: high affinity binding and antagonist activity

CNCCC=C1c2ccccc2C=Cc2ccccc21 [nor-cyclobenzaprine]
half-life [7]: ~48 h

COc1ccc(C(CN(C)C)C2(O)CCCCC2)cc1 (stereo not drawn) [venlafaxine ER]
effect on PTSD or disability [8]: no effect
